Results published in ChEMBL document CHEMBL4402545, “Subtype Selective γ-Aminobutyric Acid Type A Receptor (GABAAR) Modulators Acting at the Benzodiazepine Binding Site: An Update” (J Med Chem, 2020).
pKi: −log10 of the molar value.

Experiments:
Rattus norvegicus [1] = experiment: In vivo receptor occupancy at GABAA receptor in sc dosed rat brain; assay type: functional
Homo sapiens [2] = experiment: In vivo receptor occupancy GABAA receptor in human assessed as occipital cortex concentration causing reduction in [11C]flumazenil receptor labeling at 20 mg by PET method relative to control; assay type: functional
Homo sapiens [3] = experiment: In vivo receptor occupancy GABAA receptor in human assessed as cerebellum concentration causing reduction in [11C]flumazenil receptor labeling at 20 mg by PET method relative to control; assay type: functional
[4] = target: T1, Gamma-aminobutyric acid receptor subunit alpha-1 (Homo sapiens) (UniProt P14867); experiment: Binding affinity to GABA-A alpha1 (unknown origin) assessed as increase in induced current relative to control
T1 sequence (whole entry): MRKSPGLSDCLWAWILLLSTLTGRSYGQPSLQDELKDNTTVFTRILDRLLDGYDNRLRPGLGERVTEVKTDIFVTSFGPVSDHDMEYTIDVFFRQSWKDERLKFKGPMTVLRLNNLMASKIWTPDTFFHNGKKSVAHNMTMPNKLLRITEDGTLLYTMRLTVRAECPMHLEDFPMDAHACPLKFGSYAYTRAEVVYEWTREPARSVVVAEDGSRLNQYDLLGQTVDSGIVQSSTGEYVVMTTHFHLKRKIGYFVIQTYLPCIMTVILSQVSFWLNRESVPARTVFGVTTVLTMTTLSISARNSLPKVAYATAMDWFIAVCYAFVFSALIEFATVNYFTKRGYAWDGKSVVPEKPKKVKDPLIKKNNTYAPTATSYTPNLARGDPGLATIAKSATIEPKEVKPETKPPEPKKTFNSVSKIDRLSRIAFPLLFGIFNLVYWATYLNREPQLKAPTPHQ

[5] = target: T2, Gamma-aminobutyric acid receptor subunit alpha-2 (Homo sapiens) (UniProt P47869); experiment: Binding affinity to GABA-A alpha2 (unknown origin) assessed as increase in induced current relative to control
T2 sequence (whole entry): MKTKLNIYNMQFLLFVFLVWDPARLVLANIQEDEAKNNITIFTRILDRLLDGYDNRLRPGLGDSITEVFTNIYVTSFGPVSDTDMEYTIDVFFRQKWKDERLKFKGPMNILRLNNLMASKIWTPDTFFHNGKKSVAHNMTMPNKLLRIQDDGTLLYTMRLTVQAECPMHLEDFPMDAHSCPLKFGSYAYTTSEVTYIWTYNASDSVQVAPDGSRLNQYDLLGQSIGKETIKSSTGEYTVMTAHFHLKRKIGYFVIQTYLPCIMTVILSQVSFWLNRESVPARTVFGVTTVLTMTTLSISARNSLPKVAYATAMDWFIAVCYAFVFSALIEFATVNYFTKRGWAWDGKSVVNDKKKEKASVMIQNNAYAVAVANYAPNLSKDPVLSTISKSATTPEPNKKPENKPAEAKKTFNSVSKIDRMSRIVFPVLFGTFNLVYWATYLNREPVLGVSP

[6] = target: T3, Gamma-aminobutyric acid receptor subunit alpha-3 (Homo sapiens) (UniProt P34903); experiment: Binding affinity to GABA-A alpha3 (unknown origin) assessed as increase in induced current relative to control
T3 sequence (whole entry): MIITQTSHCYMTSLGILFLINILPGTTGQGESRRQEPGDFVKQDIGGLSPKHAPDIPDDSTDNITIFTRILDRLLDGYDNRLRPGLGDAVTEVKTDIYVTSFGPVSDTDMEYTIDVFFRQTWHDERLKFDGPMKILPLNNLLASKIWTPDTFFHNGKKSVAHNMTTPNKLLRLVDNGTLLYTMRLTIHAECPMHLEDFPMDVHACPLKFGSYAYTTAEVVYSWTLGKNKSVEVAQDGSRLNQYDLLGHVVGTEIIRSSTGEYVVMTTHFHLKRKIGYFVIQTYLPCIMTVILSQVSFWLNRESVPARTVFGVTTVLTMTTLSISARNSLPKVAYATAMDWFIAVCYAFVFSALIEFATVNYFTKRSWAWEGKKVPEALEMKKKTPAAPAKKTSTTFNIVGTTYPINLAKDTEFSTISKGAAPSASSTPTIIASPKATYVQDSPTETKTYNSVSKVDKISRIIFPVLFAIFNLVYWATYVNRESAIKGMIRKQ

[7] = target: T4, Gamma-aminobutyric acid receptor subunit alpha-5 (Homo sapiens) (UniProt P31644); experiment: Binding affinity to GABA-A alpha5 (unknown origin) assessed as increase in induced current relative to control
T4 sequence (whole entry): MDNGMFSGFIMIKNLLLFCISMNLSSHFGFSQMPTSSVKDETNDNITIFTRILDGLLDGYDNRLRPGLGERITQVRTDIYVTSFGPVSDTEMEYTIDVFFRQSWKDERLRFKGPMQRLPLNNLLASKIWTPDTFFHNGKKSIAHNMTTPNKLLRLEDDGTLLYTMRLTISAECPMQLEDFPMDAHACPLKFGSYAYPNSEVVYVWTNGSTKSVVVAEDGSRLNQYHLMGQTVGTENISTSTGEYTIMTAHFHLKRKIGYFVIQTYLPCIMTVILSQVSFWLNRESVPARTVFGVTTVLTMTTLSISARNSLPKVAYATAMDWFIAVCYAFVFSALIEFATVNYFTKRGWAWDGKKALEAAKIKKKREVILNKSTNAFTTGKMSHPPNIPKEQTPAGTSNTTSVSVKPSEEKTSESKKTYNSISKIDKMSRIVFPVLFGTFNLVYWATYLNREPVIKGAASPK

[8] = target: T5, GABA-A receptor; alpha-1/beta-3/gamma-2 (Homo sapiens, UniProt P14867+P18507+P28472); experiment: Displacement of [3H]-Ro15-1788 from human GABAA alpha1beta3gamma2 expressed in HEK293 cell membranes incubated for 40 or 90 mins by liquid scintillation counting method
T5 sequence (P14867 whole entry): T1 sequence (whole entry)
T5 sequence (P18507 whole entry): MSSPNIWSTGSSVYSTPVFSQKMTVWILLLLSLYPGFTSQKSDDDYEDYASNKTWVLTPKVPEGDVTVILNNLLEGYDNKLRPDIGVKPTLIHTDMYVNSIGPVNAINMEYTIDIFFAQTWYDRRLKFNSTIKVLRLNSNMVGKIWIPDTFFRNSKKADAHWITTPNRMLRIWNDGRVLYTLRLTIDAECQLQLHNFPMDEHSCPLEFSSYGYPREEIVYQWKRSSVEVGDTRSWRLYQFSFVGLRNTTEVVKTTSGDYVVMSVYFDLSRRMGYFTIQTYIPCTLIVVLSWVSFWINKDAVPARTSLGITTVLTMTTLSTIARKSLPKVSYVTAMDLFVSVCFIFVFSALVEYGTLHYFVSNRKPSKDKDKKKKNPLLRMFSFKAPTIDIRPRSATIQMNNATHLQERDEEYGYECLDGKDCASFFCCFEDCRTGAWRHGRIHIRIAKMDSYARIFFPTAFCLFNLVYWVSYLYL
T5 sequence (P28472 whole entry): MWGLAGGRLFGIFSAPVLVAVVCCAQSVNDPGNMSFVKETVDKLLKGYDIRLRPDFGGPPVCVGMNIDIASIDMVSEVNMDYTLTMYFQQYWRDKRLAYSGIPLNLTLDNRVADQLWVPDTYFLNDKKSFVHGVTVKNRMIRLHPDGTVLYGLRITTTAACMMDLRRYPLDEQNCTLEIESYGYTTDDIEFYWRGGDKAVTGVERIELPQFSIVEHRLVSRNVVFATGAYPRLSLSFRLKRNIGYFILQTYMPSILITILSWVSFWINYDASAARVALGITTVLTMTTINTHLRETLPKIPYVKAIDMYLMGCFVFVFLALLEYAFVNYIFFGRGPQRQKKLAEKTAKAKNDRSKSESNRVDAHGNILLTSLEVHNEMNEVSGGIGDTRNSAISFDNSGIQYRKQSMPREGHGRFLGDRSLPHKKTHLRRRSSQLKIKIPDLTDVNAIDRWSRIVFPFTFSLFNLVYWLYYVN

[9] = Displacement of [3H]-Ro15-1788 from human GABAA alpha2beta3gamma2 expressed in HEK293 cell membranes incubated for 40 or 90 mins by liquid scintillation counting method
[10] = target: T6, GABA-A receptor; alpha-3/beta-3/gamma-2 (Homo sapiens, UniProt P18507+P28472+P34903); experiment: Displacement of [3H]-Ro15-1788 from human GABAA alpha3beta3gamma2 expressed in HEK293 cell membranes incubated for 40 or 90 mins by liquid scintillation counting method
T6 sequence (P18507 whole entry): T5 sequence (P18507 whole entry)
T6 sequence (P28472 whole entry): T5 sequence (P28472 whole entry)
T6 sequence (P34903 whole entry): T3 sequence (whole entry)

[11] = target: T7, GABA-A receptor; alpha-5/beta-3/gamma-2 (Homo sapiens, UniProt P18507+P28472+P31644); experiment: Displacement of [3H]-Ro15-1788 from human GABAA alpha5beta3gamma2 expressed in HEK293 cell membranes incubated for 40 or 90 mins by liquid scintillation counting method
T7 sequence (P18507 whole entry): T5 sequence (P18507 whole entry)
T7 sequence (P28472 whole entry): T5 sequence (P28472 whole entry)
T7 sequence (P31644 whole entry): T4 sequence (whole entry)

Rattus norvegicus [12] = experiment: In vivo receptor occupancy at GABAA receptor in po dosed Wistar rat brain assessed as brain concentration causing reduction in [3H]Flunitrazepam receptor labeling by scintillation counting method; assay type: functional
[13] = target: T8, Gamma-aminobutyric acid receptor subunit alpha-2 (Homo sapiens, UniProt P47869); experiment: Binding affinity to GABA-A alpha2 (unknown origin)
T8 sequence (P47869 whole entry): T2 sequence (whole entry)

[14] = target: T9, Gamma-aminobutyric acid receptor subunit alpha-1 (Homo sapiens, UniProt P14867); experiment: Binding affinity to GABA-A alpha1 (unknown origin)
T9 sequence (P14867 whole entry): T1 sequence (whole entry)

[15] = target: T10, Gamma-aminobutyric acid receptor subunit alpha-3 (Homo sapiens, UniProt P34903); experiment: Binding affinity to GABA-A alpha3 (unknown origin)
T10 sequence (P34903 whole entry): T3 sequence (whole entry)

[16] = target: T11, Gamma-aminobutyric acid receptor subunit alpha-5 (Homo sapiens, UniProt P31644); experiment: Binding affinity to GABA-A alpha5 (unknown origin)
T11 sequence (P31644 whole entry): T4 sequence (whole entry)

Homo sapiens [17] = experiment: In vivo receptor occupancy at GABAA receptor in po dosed human assessed as plasma concentration causing 50% reduction in [11C]-flumazenil receptor labeling; assay type: functional
[18] = target: T1, Gamma-aminobutyric acid receptor subunit alpha-1 (Homo sapiens); experiment: Negative allosteric modulation of GABA-A alpha1 (unknown origin) assessed as reduction in DMCM induced current relative to DMCM
[19] = target: T2, Gamma-aminobutyric acid receptor subunit alpha-2 (Homo sapiens); experiment: Binding affinity to GABA-A alpha2 (unknown origin) assessed as reduction in DMCM induced current relative to DMCM
[20] = target: T3, Gamma-aminobutyric acid receptor subunit alpha-3 (Homo sapiens); experiment: Binding affinity to GABA-A alpha3 (unknown origin) assessed as reduction in DMCM induced current relative to DMCM
[21] = target: T4, Gamma-aminobutyric acid receptor subunit alpha-5 (Homo sapiens); experiment: Binding affinity to GABA-A alpha5 (unknown origin) assessed as reduction in DMCM induced current relative to DMCM
Rattus norvegicus [22] = experiment: In vivo receptor occupancy at GABAA receptor in po dosed rat assessed as brain concentration causing 50% reduction in [3H]-flumazenil receptor labeling; assay type: functional
Mus musculus = experiment: In vivo receptor occupancy at GABAA receptor in po dosed mouse assessed as brain concentration causing 50% reduction in [3H]-flumazenil receptor labeling; assay type: functional
Homo sapiens [23] = experiment: In vivo receptor occupancy at GABAA receptor in human assessed as brain concentration causing reduction in [11C]-flumazenil receptor labeling at 2 mg after 1 hr by PET relative to control; assay type: functional

CCCNC(=O)c1nnc2c(-c3c(F)cccc3OC)cccc2c1N [AZD7325]
Occ50 (Rattus norvegicus [1]): 1 to 2 µM/g
Occ (Homo sapiens [2]): 83%
Occ (Homo sapiens [3]): 83%

CC(C)(O)c1ccc2c(c1)ncn2-c1cccc(-c2ccccc2C#N)c1
fold change (FC) [4]: 0.08
fold change (FC) [5]: 0.26
fold change (FC) [6]: 0.52
fold change (FC) [7]: 0.78
pKi [8]: 9.39
pKi [9]: 9.08
pKi [10]: 9.30
pKi [11]: 9.92
Occ50 (Rattus norvegicus [12]): 0.69 mg/kg

Cc1cc(-c2nnc3c4ccccc4c(OCc4cn(C)nn4)nn23)no1
pKi [13]: 9.24
pKi [14]: 9.06
pKi [15]: 9.21
pKi [16]: 9.18
Occ50 (Homo sapiens [17]): 10 ng/mL
Efficacy [18]: -0.25
Efficacy [19]: 0.1
Efficacy [20]: -0.11
Efficacy [21]: -0.7
Occ50 (Rattus norvegicus [22]): 0.12 mg/kg
Occ50 (Mus musculus): 0.25 mg/kg
Occ (Homo sapiens [23]): 50%
